Data on one molecule can be found in patent US20220023303A1 (DSM IP Assets B.V., priority 2018, published 2022).

Common to all, as to format: in vivo, humans
In test [1] the test system is U.S. adults. As to the kind of experiment: NHANES: self-reported urgency to empty the bowels by total riboflavin intake. The following applies: highest two quartiles of riboflavin intake, FIG. 4. As for the experimental part: (§1) For this analysis, data from adults aged 20 years and over in the survey years 2005-2010 were selected. Participants were selected using a complex, multi-stage probability sampling design to produce a representative sample. Demographic information (gender, age, ethnicity, education, poverty-income ratio) was provided by self-report during an interview conducted by a trained interviewer in the participant's home. Questions relating to Bowel Health were administered to adults aged 20 years and older in the mobile examination center by means of a computer-assisted personal interviewing system. […] Pregnancy status in women aged 20 to 44 years was determined by self-report; negative responses were confirmed with a urinary pregnancy test. […]
(§2) The Bowel Health questionnaire in survey cycles 2005-2006 and 2007-2008 consisted of six questions: four relate to the assessment of the Fecal Incontinence Severity Index (Rockwood, et al 1999 Dis Colon Rectum 42, 1525-1532) one question requests participants' self-reported weekly bowel motion frequency, and one question was about normal stool type on the Bristol Stool Scale (Lewis et al 1997 Scand J Gastroenterol 32: 920-924). A Fecal Incontinence Intensity Score (FISI) was calculated and binned into four categories using the RANK procedure to obtain approximately equal categories. […]

For test [2], the system named is U.S. adults. As to the kind of experiment: NHANES 2005-2010 observational analysis: linear regression of self-reported bowel motion frequency on riboflavin intake. As for the experimental part:
Data were obtained from NHANES, a representative survey that measures the health and nutritional status of the U.S. non-institutionalized population. Research protocols were reviewed and approved by the National Center for Health Statistics Research Ethics Review Board (protocol #2005-2006). Ethical review of the protocols used in NHANES protocols is conducted annually, with ongoing changes submitted through an amendment process. All participants gave written consent before participation. Information that could potentially identify participants is removed before data is made publicly available.
For this analysis, data from adults aged 20 years and over in the survey years 2005-2010 were selected. Participants were selected using a complex, multi-stage probability sampling design to produce a representative sample. Demographic information (gender, age, ethnicity, education, poverty-income ratio) was provided by self-report during an interview conducted by a trained interviewer in the participant's home. Questions relating to Bowel Health were administered to adults aged 20 years and older in the mobile examination center by means of a computer-assisted personal interviewing system. Dietary assessment was conducted by means of two 24-hour dietary recalls, the first conducted in-person at the mobile examination center, and the second conducted by telephone 3 to 10 days after the dietary interview but not on the same day of the week. Pregnancy status in women aged 20 to 44 years was determined by self-report; negative responses were confirmed with a urinary pregnancy test. […] For the survey cycles 2007-2010, the total supplemental intake based on the 30 days questionnaire was also used, based on the totals provided in the dataset. Subjects who self-reported inflammatory bowel disease were excluded.
The Bowel Health questionnaire in survey cycles 2005-2006 and 2007-2008 consisted of six questions: four relate to the assessment of the Fecal Incontinence Severity Index (Rockwood, et al 1999 Dis Colon Rectum 42, 1525-1532) one question requests participants' self-reported weekly bowel motion frequency, and one question was about normal stool type on the Bristol Stool Scale (Lewis et al 1997 Scand J Gastroenterol 32: 920-924). A Fecal Incontinence Intensity Score (FISI) was calculated and binned into four categories using the RANK procedure to obtain approximately equal categories. In the 2009-2010 survey cycle, questions about bowel evacuation urgency, constipation and diarrhea incidence over the previous year, and laxative use over the past 30 days, were added.
Statistical analyses were performed using SAS version 9.3 (SAS Institute Inc., Cary, N.C., USA). Statistical significance was set at 0.05.
Gender, ethnicity, education, age (continuous), Poverty-Income Ratio (PIR, continuous) were included in the socio-demographic chunk, and vigorous physical activity over the past 30 days (Y/N), dietary supplement use (Y/N), fiber and moisture intake (continuous), self-report of thyroid problems (Y/N) and use of prescription medication (1 or less vs 2 or more) were included in the diet and health chunk.
The final linear regression using significant predictors was performed using […] to generate the correct variance estimation that takes the complex survey design into account.

The test system of test [3] is U.S. adults. As to the kind of experiment: NHANES: self-reported common stool type (Bristol Stool Scale) by quartiles of riboflavin intake. The following applies: as riboflavin intake increases (quartiles), FIG. 1. On the procedure:
as §1, §2

Test [4] deals with U.S. adults. As to the kind of experiment: NHANES: normalcy of bowel motion frequency (3-21 bowel motions per week) by riboflavin intake quartiles. The following applies: as riboflavin intake increases, food and total riboflavin, FIG. 2. As for the experimental part:
as §1, §2

The mark [5] stands for this setting: Adjusted model (demographics): gender, age, education, Poverty-Income Ratio, ethnicity.
Where [6] appears, read: Adjusted model (diet/health): prescription medications, thyroid problem, fiber and moisture intake.
The mark [7] stands for this setting: Adjusted model (full): all variables.

Turning to `Cc1cc2nc3c(=O)[nH]c(=O)nc-3n(C[C@H](O)[C@H](O)[C@H](O)CO)c2cc1C` [riboflavin], the “Number of respondents reporting bowel motion urgency occurs "rarely"” value with U.S. adults [1] is on record as “significant increase”. The “Beta-coefficient, bowel motion frequency, DS riboflavin intake” value with U.S. adults [2] (setting [5]) turned out to be 0.0108; in the test with U.S. adults [2] (setting [6]), 0.00807; with U.S. adults [2] (setting [7]) it was 0.00895; with U.S. adults [2] (Crude model, dietary supplements), 0.0101. Besides, the “Beta-coefficient, bowel motion frequency, Food riboflavin intake” value with U.S. adults [2] (setting [5]) was 0.253; in the test on U.S. adults [2] (setting [6]) it was 0.0465; in the test on U.S. adults [2] (setting [7]), 0.0191; with U.S. adults [2] (Crude model), 0.355. Also, the “Beta-coefficient, bowel motion frequency, Total riboflavin intake” value is on record as 0.0130 in the test on U.S. adults [2] (setting [5]), 0.00684 with U.S. adults [2] (setting [6]), 0.00974 in the test with U.S. adults [2] (setting [7]) and 0.0113 with U.S. adults [2] (Crude model). Also, the “Riboflavin intake at which effect on bowel health parameters was seen” value in the test with U.S. adults [2] (above the median intake) is more than 2.1 mg/day. Besides, in the test on U.S. adults [2] (after adjusting for socio-demographic, diet and lifestyle co-factors), the “Relationship between food riboflavin intake and bowel motion frequency” value is “not significant”. Besides, the “Relationship between riboflavin intake and bowel motion frequency” value in the test with U.S. adults [2] (crude model, intakes from food, dietary supplements and in total) is “significant, positive relationship”. In addition, the “Relationship between total riboflavin intake and bowel motion frequency, stratified by fiber intake” value in the test with U.S. adults [2] (dietary fiber intake low, less than the median) is on record as “no significant relationship”; in the test on U.S. adults [2] (top two quartiles of dietary fiber intake) it was “only significant”. The “Change in bowel motion frequency with riboflavin” value in the test with U.S. adults [2] (fibre intakes in the upper three quartiles (above 9 g/day)) is reported as “Increases”. Also, the “Relationship between riboflavin intake from dietary supplements and in total, and bowel motion frequency” value in the test on U.S. adults [2] (fully adjusted model) was “significant, positive relationship”. Besides, the “Riboflavin intake at which effect on bowel health parameters was especially seen” value with U.S. adults [2] (highest quartile of riboflavin intake) was more than 3.1 mg/day. Besides, the “Change in stool type 4 (normal defecation)” value with U.S. adults [3] was “increase”. In addition, the “Change in stool types 2 (slow transit time) and 5 (soft-fluid stool)” value with U.S. adults [3] is “reduction”. In addition, the “Proportion of the population with normal bowel motion patterns” value in the test on U.S. adults [4] is on record as “increases”.
